Measured values: patent publication US11952362B2, “Compositions and methods for treating epigenetic disease” (The Regents of the University of California, priority 2018, dated 2024)

Columns and labels:
Format in all cases: cell-based
[1] = system: IL1B and TNFA mRNA levels in HDAC9-overexpressing NCM356 cells; assay: IL1B and TNFA mRNA (qPCR) in HDAC9-overexpressing NCM356 colonocytes
Experimental: NCM356 colon epithelial cell lines were growth in M3:10 (INCELL, San Antonio, Tex.). A CMV-driven-HDAC9 vector was used to overexpress HDAC9 levels in NCM356 cells. IL1B and TNFA mRNA levels were measured by qPCR analysis as described previously (Fang K et al. Am J Pathol, 188(3):586-99, 2018).

[2] = system: SW480 colon cancer cell line; assay: Cell viability assay (CellTiter Glo), SW480; conditions: Homo sapiens, 120 h; SW480, 20 uM, day 5; read-out: % growth inhibition
Experimental: (§1) Pancreatic cancer cell lines (MIA PaCa-2 and CAPAN-2) were purchased from ATCC. MIA PaCa-2 were grown in DMEM and CAPAN-2 in McCoy's 5A (Gibco). Colon cancer cell lines (SW480 and HT-29) were purchased from ATCC. SW480 were grown in Leibovitz's L-15 (ATCC) and HT-29 in McCoy's 5A (Gibco). Lung cancer cell lines (NCI 460 and NCI 1975) were purchased from ATCC and grown in RPMI 1640 (Gibco). PC-3 prostate cancer cell line was purchased from ATCC and grown in F-12K (ATCC). Bladder cancer cell line 5637 was purchased from ATCC and RT-112 was purchased from Sigma-Aldrich and was grown in RPMI 1640 (Gibco). […] IL1B and TNFA mRNA levels were measured by qPCR analysis as described previously (Fang K et al. Am J Pathol, 188(3):586-99, 2018).
(§2) 1.8×10^3 cells/well were plated in quadruplicates in 96-well plate and treated with exogenously added MJK analogues 6 hours after plating. […] Cell growth was assessed 1, 3, 5 or 7 days after plating using the CellTiter Glo Luminescence Cell Viability Assay (Promega) according to manufacturer's protocol. For the experiments where the effect of combinatorial treatment of MJK-004 analogues with chemotherapy was assessed, treatment of cells with gemcitabine (10 nM) or 5-fluouracil (2000 nM) was performed one day after MJK-004 treatment and the cells were further treated with exogenously added MJK analogues 2 days later. […]

[3] = system: MIA PaCa-2 pancreatic cancer cell line; assay: Cell viability assay (CellTiter Glo), MIA PaCa-2; conditions: Homo sapiens, 120 h; MIA PaCa-2, 20 uM, day 5; read-out: % growth inhibition
Experimental: as §1, §2

[4] = system: CAPAN-2 pancreatic cancer cell line; assay: Cell viability assay (CellTiter Glo), CAPAN-2; conditions: Homo sapiens, 120 h; CAPAN-2, 20 uM, day 5; read-out: % growth inhibition
Experimental: as §1, §2

Structure (SMILES) | IL1B and TNFA mRNA levels (inflammatory response) [1] | inhibition at 20 µM [2] [%] | inhibition at 20 µM [3] [%] | inhibition at 20 µM [4] [%]
Cl.Cn1c(/C=C/C(=O)NO)ccc1/C=C/C(=O)c1cccnc1 [MJK008, (E)-N-Hydroxy-3-(1-methyl-5-((E)-3-oxo-3-(pyridin-3-yl)prop-1-en-1-yl)-1H-pyrrol-2-yl)ac-rylamide hydrochloride] | reduced substantially the inflammatory response |  |  | 
Cn1c(/C=C/C(=O)NO)ccc1/C=C/C(=O)c1cccc(F)c1 [MJK001, (E)-3-(5-((E)-3-(3-Fluorophenyl)-3-oxoprop-1-en-1-yl)-1-methyl-1H-pyrrol-2-yl)-N-hydro-xyacrylamide] |  | 58.4 | 0 | 42.7
